Molecules are shown by their SMILES.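 Exposure lasted 48 hours, with cells grown in 96-well plates and compounds tested at five concentrations. Here, GI50 denotes the concentration required for 50% inhibition of growth.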 Calls of active or inactive are those of the source. Cut-off read from the data, not from the text of the source: active = GI50 up to about 1.1 µM and inactive = higher.

Common to all, as to test: growth of human tumour cells (NCI), 48 h
The subject of assay [1] is EKVX.
The test system of assay [2] is MDA-N.
In assay [3] the test system is MCF7.
Assay [4] concerns OVCAR-4.
Assay [5] has as its system Malme-3M.
Assay [6] concerns SN12C.
The subject of assay [7] is ACHN.
In assay [8] the test system is HCT-116.
The test system of assay [9] is SF-539.
The test system of assay [10] is A498.
The subject of assay [11] is U-251.
In assay [12] the test system is SF-295.
For assay [13], the system named is MDA-MB-231.
In assay [14] the test system is OVCAR-3.
Assay [15] has as its system SNB-19.
Assay [16] has as its system SF-268.
The subject of assay [17] is OVCAR-8.
Assay [18] concerns HL-60.
The subject of assay [19] is HCC 2998.

Regarding `O=C1NC(=O)C(c2c[nH]c3ccccc23)=C1c1cnc[nH]1`, the GI50 in assay [1] is > 100 µM (inactive); in [2] it was 74.3 µM (inactive); in assay [3], 34.5 µM (inactive); in assay [4], > 100 µM (inactive); in assay [5], > 100 µM (inactive); in assay [6] it was > 100 µM (inactive). Besides, the GI50 was > 100 µM (inactive) in assay [7]; 41.8 µM (inactive) in assay [8]; 32.9 µM (inactive) in [9]; > 100 µM (inactive) in [10]; > 100 µM (inactive) in [11]; > 100 µM (inactive) in assay [12]. The GI50 was > 100 µM (inactive) in assay [13]; 82 µM (inactive) in assay [14]; > 100 µM (inactive) in assay [15]; > 100 µM (inactive) in assay [16]; > 100 µM (inactive) in assay [17]; 26.9 µM (inactive) in assay [18].
For `O=C1/C(=C/c2ccc(Cl)cc2)NC(=S)N1CN1CCOCC1`, the GI50 in [1], in [2], in assay [3], in [4], in [5] and in assay [6] was > 100 µM (inactive) in each case. Besides, the GI50 in assay [7] is > 100 µM (inactive); in assay [8], > 100 µM (inactive); in assay [10], 57.3 µM (inactive); in [11] it was > 100 µM (inactive); in assay [12], > 100 µM (inactive); in assay [13] it was > 100 µM (inactive). Moreover, the GI50 in assay [14], in assay [15], in [16] and in assay [17] was > 100 µM (inactive) in each case.
In the case of `C=CC(C)(C)c1cc([C@@H]2COc3cc(O)ccc3C2=O)c(O)c(O)c1OC`, the GI50 in assay [1] is 28.6 µM (inactive); in [2], 22.2 µM (inactive); in assay [3], 17.4 µM (inactive); in [4], 16.9 µM (inactive); in assay [5] it was 30.5 µM (inactive); in [6], 17.6 µM (inactive). In addition, the GI50 in [19] is 61.8 µM (inactive); in assay [7] it was 17.6 µM (inactive); in assay [8], 16.9 µM (inactive); in assay [9], 24.9 µM (inactive); in assay [11], 20.2 µM (inactive); in assay [12], 39.4 µM (inactive). Besides, the GI50 in assay [13] is 25.2 µM (inactive); in [14], 15.8 µM (inactive); in assay [15], 23.5 µM (inactive); in [16], 18.2 µM (inactive); in [17], 16.4 µM (inactive); in assay [18], 22.7 µM (inactive).
As for `NC(=O)Cn1c(=O)oc2cc(C(=O)CN3CCOCC3)ccc21`, the GI50 in assay [1], in assay [2], in assay [3], in assay [5], in assay [6] and in assay [8] was > 100 µM (inactive) in each case. Besides, the GI50 in [9], in assay [10], in assay [11], in assay [12], in assay [13] and in assay [14] was > 100 µM (inactive) each time. The GI50 in assay [15], in assay [16], in assay [17] and in assay [18] was > 100 µM (inactive) each time.
On to `c1ccc(-c2c(-c3[nH]c4ccccc4c3-c3ccccc3)[nH]c3ccccc23)cc1`, for which the GI50 in assay [1] was 3.89 µM (inactive); in [2] it was 2.74 µM (inactive); in assay [3], 3.33 µM (inactive); in assay [4], 2.17 µM (inactive); in [5], 13.7 µM (inactive); in assay [6] it was 1.91 µM (inactive). Moreover, the GI50 in assay [19] was 1.82 µM (inactive); in assay [7], 3.33 µM (inactive); in assay [8], 4.06 µM (inactive); in assay [9], 7.96 µM (inactive); in assay [11], 4.52 µM (inactive); in [12], 4.18 µM (inactive). Further, the GI50 in assay [13] is 3.4 µM (inactive); in assay [14] it was 2.3 µM (inactive); in assay [15] it was 6.5 µM (inactive); in assay [16] it was 6.47 µM (inactive); in assay [17] it was 4.29 µM (inactive); in assay [18] it was 3.06 µM (inactive).
`COC(=O)Nc1nc2cc(S(=O)(=O)NC(CC(C)C)C(=O)OC)ccc2[nH]1` (stereo unspecified): the GI50 in assay [1] is 3.93 µM (inactive); in assay [2], 0.414 µM (active); in [3] it was 1.65 µM (inactive); in [4] it was 4.83 µM (inactive); in assay [5], 3.08 µM (inactive); in assay [6] it was 7.89 µM (inactive). The GI50 in assay [7] is 11.1 µM (inactive); in assay [8], 2.32 µM (inactive); in [9], 4.48 µM (inactive); in assay [10], 3.13 µM (inactive); in assay [11], 4.12 µM (inactive); in [12] it was 1.83 µM (inactive). Besides, the GI50 in [13] was 6.32 µM (inactive); in [14], 0.721 µM (active); in assay [15] it was 2.45 µM (inactive); in [16] it was 10.8 µM (inactive); in assay [17], 3.96 µM (inactive); in assay [18], 2.69 µM (inactive).
With `CSc1ncc2c(n1)-c1ccccc1OC2`, the GI50 in assay [1] was 34.3 µM (inactive); in assay [2], 57.1 µM (inactive); in assay [3], 43.1 µM (inactive); in assay [4], 61 µM (inactive); in assay [6] it was 39.7 µM (inactive); in assay [7], 45.9 µM (inactive). In addition, the GI50 in [8] was 70.8 µM (inactive); in assay [9] it was 37.7 µM (inactive); in assay [10], 13.3 µM (inactive); in assay [11] it was 51.3 µM (inactive); in assay [12] it was 94.2 µM (inactive); in [13], 16.7 µM (inactive). Further, the GI50 was 27.9 µM (inactive) in assay [14]; 75.9 µM (inactive) in [15]; 49.4 µM (inactive) in assay [16]; 79.1 µM (inactive) in assay [17]; 38.9 µM (inactive) in [18].
With `CCn1c2ccccc2c2cc(/N=N\c3ccc(C#N)cc3)ccc21`, the GI50 in assay [1] was 33.3 µM (inactive); in [2], 69.5 µM (inactive); in assay [3], 4.41 µM (inactive); in [4], 98.6 µM (inactive); in [5], 18.7 µM (inactive); in assay [6], > 100 µM (inactive). In addition, the GI50 in [7] was > 100 µM (inactive); in assay [8], 50.4 µM (inactive); in assay [9] it was 32.8 µM (inactive); in assay [10] it was 25.8 µM (inactive); in assay [11], 29.8 µM (inactive); in assay [12], 32.1 µM (inactive). The GI50 in assay [13] was 17 µM (inactive); in assay [14] it was > 100 µM (inactive); in [15], 19.4 µM (inactive); in [16] it was 54.7 µM (inactive); in [17] it was 39.3 µM (inactive); in assay [18] it was 32.1 µM (inactive).
`Cc1cccc2nc3c(=O)[nH]c(=O)nc-3n(C)c12`: the GI50 in [1] is > 100 µM (inactive); in assay [2], 62.1 µM (inactive); in [3], 34.5 µM (inactive); in assay [4] it was 45.5 µM (inactive); in assay [5] it was 21.3 µM (inactive); in assay [6], > 100 µM (inactive). The GI50 in assay [19] is 86.1 µM (inactive); in assay [7], > 100 µM (inactive); in assay [8], 30.4 µM (inactive); in [9], 41.1 µM (inactive); in [11] it was 86.5 µM (inactive); in assay [12], 92.9 µM (inactive). Also, the GI50 in assay [13] is > 100 µM (inactive); in [14], 28 µM (inactive); in [15] it was 71.3 µM (inactive); in assay [16], 50.4 µM (inactive); in [17], 52 µM (inactive); in [18], 15.7 µM (inactive).
On to `Cc1cn2c(/C=N/NC(=N)N)c(-c3ccc(Cl)c([N+](=O)[O-])c3)nc2s1`, for which the GI50 in assay [1] is 0.776 µM (active); in [2], 0.857 µM (active); in assay [3], 0.895 µM (active); in assay [4], 1.55 µM (inactive); in [5] it was 1.83 µM (inactive); in [6], 0.705 µM (active). Further, the GI50 in assay [7] is 1.76 µM (inactive); in [8] it was 0.207 µM (active); in assay [9] it was 1.73 µM (inactive); in assay [10], 0.07 µM (active); in assay [11], 0.268 µM (active); in [12], 1.3 µM (inactive). Besides, the GI50 in [13] was 1.13 µM (inactive); in [14] it was 1.13 µM (inactive); in [16], 1.23 µM (inactive); in assay [17], 0.416 µM (active); in [18], 0.116 µM (active).
As to `Nc1ccn(C2CC3OCC3O2)c(=O)n1` (stereo unspecified), the GI50 in assay [1], in [2], in assay [3], in assay [4], in assay [6] and in assay [7] was > 100 µM (inactive) each time. Besides, the GI50 in assay [8], in assay [9], in assay [10], in [11], in assay [12] and in assay [13] was > 100 µM (inactive) in each case. In addition, the GI50 in assay [14], in [15], in assay [16], in [17] and in assay [18] was > 100 µM (inactive) in each case.
